Like-named read-outs stand apart in the source and are kept apart here.
Key:
[1] = test system: Ba/F3-Flt3-transfected cells; experiment: Ba/F3-Flt3 (plus IL3) cellular proliferation assay, counterscreen with 10 ng/ml murine IL3; assay type: cell-based; conditions: plus IL3 (10 ng/ml murine IL3, counterscreen); read-out: BAF3_FLT3 (PLUS IL3) pIC50 (converted)
Experimental: Ba/F3-Flt3 (Minus IL3 or Plus IL3) (Cellular Proliferation Assay)
In a 384 well plate, 100 nl of compound dilution in DMSO was sprayed before adding 50 μl cell culture medium (phenol red free RPMI-1640, 10% FBS, 2 mM L-Glutamine and 50 μg/ml Gentamycin) containing 20000 cells per well of Ba/F3-Flt3-transfected cells. Cells were put in an incubator at 37° C. and 5% CO2. After 24 hours, 10 μl of Alamar Blue solution (0.5 mM K3Fe(CN)6, 0.5 mM K4Fe(CN)6, 0.15 mM Resazurin and 100 mM Phosphate Buffer) was added to the wells, incubated for 4 hours at 37° C. and 5% CO2 before RFU's (Relative Fluorescence Units) (ex. 540 nm., em. 590 nm.) were measured in a fluororescence plate reader.
As a counterscreen the same experiment was performed in the presence of 10 ng/ml murine IL3.

FGFR3 (h) = FGFR3 (h) (Homo sapiens, UniProt P22607); experiment: FGFR3 (enzymatic assay), TR-FRET; assay type: biochemical; conditions: read-out: FGFR 3 pIC50 (converted)
From the text: Time-Resolved Fluorescence Resonance Energy Transfer (TR-FRET) signal (ex340 nm.

[2] = test system: Ba/F3-FGFR1-transfected cells; experiment: Ba/F3-FGFR1 (plus IL3) cellular proliferation assay, counterscreen with 10 ng/ml murine IL3; assay type: cell-based; conditions: read-out: BAF3-FGFR1 (PLUS IL3) pIC50 (converted)
Summary of the method: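 Proliferation read-out: resazurin-based Alamar Blue fluorescence (540/590 nm) after 4 h, following 24 h compound treatment of 20000 Ba/F3-FGFR1 cells per well in 10% FBS RPMI at 37° C. IL3 counterscreen used the same protocol plus 10 ng/ml murine IL3.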

[3] = biological target: T1, Ba/F3-FGFR3-transfected cells (Homo sapiens, UniProt P22607); experiment: Ba/F3-FGFR3 (minus IL3) cellular proliferation assay, Alamar Blue; assay type: cell-based
T1 construct: BAF3-FGFR3 (MIN IL3) pIC50; other: minus IL3
Summary of the method: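 Ba/F3 cells transfected with FGFR3 were seeded at 20000 cells/well in phenol red-free RPMI-1640 with 10% FBS over compound in DMSO and kept 24 hours at 37° C, 5% CO2. Alamar Blue (resazurin) was then added for 4 hours and fluorescence read at ex 540/em 590 nm. The counterscreen repeated this with 10 ng/ml murine IL3.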

[4] = biological target: T2, Ba/F3-FGFR1-transfected cells (Homo sapiens, UniProt P11362); experiment: Ba/F3-FGFR1 (minus IL3) cellular proliferation assay, Alamar Blue; assay type: cell-based
T2 construct: BAF3-FGFR1 (MIN IL3) pIC50; other: minus IL3
Summary of the method: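 Ba/F3 cells transfected with FGFR1 (20000 cells/well) were plated onto compound in phenol red-free RPMI-1640 with 10% FBS, 2 mM L-glutamine and gentamycin, then kept 24 h at 37 °C, 5% CO2. Alamar Blue (resazurin) was added for 4 h and fluorescence read at ex 540/em 590 nm.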

FGFR4 (h) = FGFR4 (h) (Homo sapiens, UniProt P22455); experiment: FGFR4 (enzymatic assay), TR-FRET; assay type: biochemical; conditions: FGFR 4 pIC50, enzymatic assay
[5] = average values if tested multiple times
[6] = plus IL3 (10 ng/ml murine IL3, counterscreen)

T1 sequence (P22607 whole entry, change not shown): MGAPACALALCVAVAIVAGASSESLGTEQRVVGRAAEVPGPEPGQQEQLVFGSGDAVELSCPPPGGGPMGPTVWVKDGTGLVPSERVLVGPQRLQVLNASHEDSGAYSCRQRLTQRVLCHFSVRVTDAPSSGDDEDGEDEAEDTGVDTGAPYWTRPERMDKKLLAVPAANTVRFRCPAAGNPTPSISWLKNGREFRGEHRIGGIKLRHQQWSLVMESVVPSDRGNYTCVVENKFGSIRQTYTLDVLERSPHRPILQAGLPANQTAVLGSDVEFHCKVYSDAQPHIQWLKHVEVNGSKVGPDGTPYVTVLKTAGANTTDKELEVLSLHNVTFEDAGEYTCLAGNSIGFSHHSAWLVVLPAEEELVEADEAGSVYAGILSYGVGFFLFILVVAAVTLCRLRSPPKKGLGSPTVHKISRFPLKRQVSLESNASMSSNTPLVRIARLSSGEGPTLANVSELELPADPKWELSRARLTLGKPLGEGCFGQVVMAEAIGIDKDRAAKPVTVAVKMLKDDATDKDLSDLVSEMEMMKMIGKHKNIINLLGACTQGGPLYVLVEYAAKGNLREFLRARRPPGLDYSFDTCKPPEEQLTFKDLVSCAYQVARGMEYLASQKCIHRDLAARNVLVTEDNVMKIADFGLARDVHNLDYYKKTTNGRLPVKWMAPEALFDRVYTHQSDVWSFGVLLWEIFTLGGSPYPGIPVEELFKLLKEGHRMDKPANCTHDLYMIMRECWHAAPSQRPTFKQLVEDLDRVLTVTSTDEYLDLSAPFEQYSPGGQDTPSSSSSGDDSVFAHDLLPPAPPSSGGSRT
Sequence of FGFR3 (h) (P22607 23-806): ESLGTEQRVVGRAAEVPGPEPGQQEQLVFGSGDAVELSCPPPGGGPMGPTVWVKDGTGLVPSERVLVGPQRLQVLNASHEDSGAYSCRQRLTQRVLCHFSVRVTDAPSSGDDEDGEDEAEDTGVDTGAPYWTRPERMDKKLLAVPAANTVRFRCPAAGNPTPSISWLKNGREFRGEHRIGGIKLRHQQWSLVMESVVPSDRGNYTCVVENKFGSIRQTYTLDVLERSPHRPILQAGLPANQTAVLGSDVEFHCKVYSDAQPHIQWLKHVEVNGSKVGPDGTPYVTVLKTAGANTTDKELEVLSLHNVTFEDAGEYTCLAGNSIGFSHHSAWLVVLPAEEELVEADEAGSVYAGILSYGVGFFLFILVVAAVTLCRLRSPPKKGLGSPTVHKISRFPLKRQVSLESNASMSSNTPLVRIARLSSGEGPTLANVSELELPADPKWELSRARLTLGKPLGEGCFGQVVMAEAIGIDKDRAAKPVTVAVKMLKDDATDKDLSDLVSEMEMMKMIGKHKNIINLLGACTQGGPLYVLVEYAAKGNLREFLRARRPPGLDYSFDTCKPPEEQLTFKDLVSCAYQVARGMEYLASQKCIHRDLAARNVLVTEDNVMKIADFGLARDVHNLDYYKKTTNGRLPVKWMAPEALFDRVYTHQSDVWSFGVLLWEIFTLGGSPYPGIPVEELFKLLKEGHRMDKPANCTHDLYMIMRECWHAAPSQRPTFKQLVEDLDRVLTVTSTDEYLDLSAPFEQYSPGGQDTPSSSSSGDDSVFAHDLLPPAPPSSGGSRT
T2 sequence (P11362 whole entry, change not shown): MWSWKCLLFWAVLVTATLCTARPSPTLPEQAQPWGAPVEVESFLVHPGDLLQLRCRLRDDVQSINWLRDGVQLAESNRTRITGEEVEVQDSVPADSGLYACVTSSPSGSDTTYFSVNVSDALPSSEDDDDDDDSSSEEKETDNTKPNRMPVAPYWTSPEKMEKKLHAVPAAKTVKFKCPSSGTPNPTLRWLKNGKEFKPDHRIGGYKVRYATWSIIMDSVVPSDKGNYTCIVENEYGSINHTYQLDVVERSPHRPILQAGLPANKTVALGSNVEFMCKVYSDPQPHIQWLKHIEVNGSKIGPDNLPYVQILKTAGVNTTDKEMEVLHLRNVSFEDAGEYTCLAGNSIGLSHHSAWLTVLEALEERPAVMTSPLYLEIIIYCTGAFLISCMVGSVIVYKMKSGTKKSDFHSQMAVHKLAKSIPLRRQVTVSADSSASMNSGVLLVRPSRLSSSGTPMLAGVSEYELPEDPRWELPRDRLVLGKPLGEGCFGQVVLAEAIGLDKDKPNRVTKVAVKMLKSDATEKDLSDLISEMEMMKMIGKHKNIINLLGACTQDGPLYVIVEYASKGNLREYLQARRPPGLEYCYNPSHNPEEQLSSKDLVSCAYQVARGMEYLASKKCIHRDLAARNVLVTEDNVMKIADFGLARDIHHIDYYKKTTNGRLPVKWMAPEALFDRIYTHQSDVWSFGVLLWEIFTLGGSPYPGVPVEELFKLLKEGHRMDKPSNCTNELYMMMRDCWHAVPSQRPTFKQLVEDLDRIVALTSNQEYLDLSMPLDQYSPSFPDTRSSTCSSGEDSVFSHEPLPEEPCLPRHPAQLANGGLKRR
Sequence of FGFR4 (h) (P22455 22-802): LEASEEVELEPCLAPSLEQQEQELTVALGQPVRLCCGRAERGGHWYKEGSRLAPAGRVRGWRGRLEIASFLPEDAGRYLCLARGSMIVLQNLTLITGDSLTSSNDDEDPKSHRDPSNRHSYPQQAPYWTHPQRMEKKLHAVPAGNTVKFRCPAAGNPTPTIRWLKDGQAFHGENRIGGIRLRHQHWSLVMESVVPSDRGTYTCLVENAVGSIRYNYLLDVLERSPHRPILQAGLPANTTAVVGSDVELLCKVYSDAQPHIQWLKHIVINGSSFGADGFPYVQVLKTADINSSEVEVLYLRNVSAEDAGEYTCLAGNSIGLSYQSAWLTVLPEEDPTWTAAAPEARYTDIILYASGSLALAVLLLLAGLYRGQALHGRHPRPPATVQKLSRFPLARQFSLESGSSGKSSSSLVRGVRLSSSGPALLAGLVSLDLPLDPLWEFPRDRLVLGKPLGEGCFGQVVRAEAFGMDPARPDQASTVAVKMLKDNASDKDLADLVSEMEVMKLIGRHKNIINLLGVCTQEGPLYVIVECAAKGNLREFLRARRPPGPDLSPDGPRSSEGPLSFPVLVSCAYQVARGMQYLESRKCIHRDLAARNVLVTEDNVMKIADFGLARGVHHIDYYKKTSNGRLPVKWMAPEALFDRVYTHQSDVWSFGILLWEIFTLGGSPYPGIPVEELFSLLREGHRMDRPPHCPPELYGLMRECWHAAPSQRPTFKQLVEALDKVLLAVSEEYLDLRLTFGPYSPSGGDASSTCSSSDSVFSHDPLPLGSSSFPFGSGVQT

Compound | IC50 [1] [nM] | IC50 (FGFR3 (h); [5]) [nM] | IC50 [2, 6] [nM] | BAF3-FGFR3 (MIN IL3) pIC50 [3] | BAF3-FGFR1 (MIN IL3) pIC50 [4] | IC50 (FGFR4 (h); [5]) [nM] | melting point [°C] | IC50 [2] [nM] | IC50 (FGFR3 (h)) [nM] | IC50 (FGFR4 (h)) [nM]
COc1cc(OC)c(F)c(N(Cc2cnccn2)c2ccc3ncc(-c4cnn(C)c4)nc3n2)c1F [Compound 10] | > 10000 | 63.1 | > 10000 | 7.85 | 8.1 | 100 |  |  |  | 
COc1cc(OC)c(F)c(N(CCO)c2ccc3ncc(-c4cnn(C)c4)nc3n2)c1F [Compound 20] | > 10000 | 1.58 | > 10000 | 8.15 | 8.35 | 3.98 |  |  |  | 
Cn1cc(-c2cnc3ccc(N(Cc4ncc[nH]4)c4cc(F)cc(F)c4)nc3n2)cn1 [Compound 27] | > 10000 | 3.89 | > 10000 | ~6.54 | 6.14 | 11.2 |  |  |  | 
COc1cc(OC)c(F)c(N(Cc2cn(S(=O)(=O)N(C)C)cn2)c2ccc3ncc(-c4cnn(C)c4)nc3n2)c1 [Compound 36] | > 10000 | 1.7 | > 10000 | ~7.57 | 7.72 | 1.48 |  |  |  | 
COCC(O)CN(c1ccc2ncc(-c3cnn(C)c3)nc2n1)c1c(F)c(OC)cc(OC)c1F (stereo not drawn) [Compound 50] |  | 3.63 | > 10000 | ~8.11 | 8.10 | 3.24 | 162 to 163 |  |  | 
COCC(O)Cn1c(=Nc2c(F)c(OC)cc(OC)c2F)ccc2ncc(-c3cnn(C)c3)nc21 (stereo not drawn) [Compound 51] |  | 0.501 | > 10000 | ~8.03 | 8.48 | 0.525 | 180 |  |  | 
COc1cc(OC)c(F)c(/N=c2\ccc3ncc(-c4cnn(C)c4)nc3n2CCCN2CCCC2=O)c1F [Compound 55] |  | 0.49 | 7760 | 8.19 | 8.12 | 0.447 | 227 |  |  | 
COc1cc(OC)cc(N(Cc2nc[nH]n2)c2ccc3ncc(-c4cnn(C)c4)nc3n2)c1 [Compound 71] |  | 0.776 |  | 7.71 | 7.49 | 1.62 | 238 | > 10000 |  | 
COc1cc(O)cc(N(Cc2ncc[nH]2)c2ccc3ncc(-c4cnn(C)c4)nc3n2)c1F [Compound 95] |  | 0.447 | 7410 | ~8.46 | 8.83 | 0.537 | 218 |  |  | 
COc1cc(OC)c(Cl)c(N(C[C@H]2CCC(=O)N2)c2ccc3ncc(-c4cnn(C)c4)nc3n2)c1Cl [Compound 97] |  | 4.68 | > 10000 | ~6.83 | 6.80 | 26.3 | 150 |  |  | 
COc1cc(O)cc(N(Cc2ncc[nH]2)c2ccc3ncc(-c4cnn(C)c4)nc3n2)c1 [Compound 103] |  | 0.417 | > 8510 | ~8.00 | 8.31 | 0.741 | 172 |  |  | 
COc1cc(OC)cc(N(CC2CCCCO2)c2ccc3ncc(-c4cnn(C)c4)nc3n2)c1 (stereo not drawn) [Compound 129] |  |  | > 10000 | ~7.15 | ~7.15 |  | 137 |  | 2.69 | 7.76
COc1cc(OC)c(F)c(N(CC2CCCCO2)c2ccc3ncc(-c4cnn(C)c4)nc3n2)c1 (stereo not drawn) [Compound 139] |  |  | > 10000 | 7.38 | 7.40 |  | 94 |  | 2.75 | 4.17
COc1cc(OC)c(F)c(N(Cc2nn[nH]n2)c2ccc3ncc(-c4cnn(C)c4)nc3n2)c1 [Compound 140] |  |  | > 10000 | <5 | <5 |  | 149 |  | 5.62 | 11.7
